Measurements reported in patent US20060019971A1, “Treatment of cardiovascular disease with inhibitors of p38 kinase” (priority 2003, published 2006).
“Also recorded” adds a separate entry of the source.

How the values were obtained:
[1] = system: IL-6 secretion from HPBMCs; experiment: IL-6 secretion from HPBMCs, ELISA; format: cell-based, human
Method: FIG. 2(a) illustrates both the effect of CRP on IL-6 secretion from HPBMCs and its modulation by a p38 inhibitor. 8×10^5 HPBMCs were plated in 96-well. After 1 hour medium was removed and cells were incubated with or without 10 μg/ml of purified human CRP in serum-free RPMI 1640. In parallel experiments cells were treated with 10% FCS together with the CRP treatment. For the p38 antagonism, the p38 inhibitor was added to a final concentration of 1 μM in the parallel treatment. After 6 hours the conditioned medium was collected and IL-6 and IL-8 levels were determined by ELISA. FIG. 2(b) illustrates the effects of p38 inhibitor concentration on CRP induced IL-6 secretion from HPBMCs. 3×10^5 HPBMCs were plated in 96-well. After 1 hour medium was removed and cells were incubated with 10 μg/ml of purified human CRP plus 10% FCS in the presence of varying concentrations of p38 inhibitor. After 4 hours conditioned medium were collected and IL-6 level was determined by ELISA. FIG. 2(c) illustrates both the effect of CRP on IL-6 gene expressions in HPBMCs and its modulation by p38 inhibitor. 5×10^6 HPBMCs were plated in 6-well. After 1 hour medium was removed and cells were treated with vehicle or 1 μM p38 inhibitor in RPMI 1640 medium. After 1 hour cells were stimulated with 10% FCS only or 10 μg/ml CRP plus 10% FCS. After 6 hours RNA was extracted from the cells and IL-6 expression level was determined by real-time PCR as described in Experimental section.
(§1) Cryopreserved human peripheral blood monocytes (HPBMCs, from Biowitker, Walkersvill, Md.) were thawed and washed twice in RPMI 1640. Cells were plated in tissue culture plates and incubated in 5% CO2 at 37 C. After 1 hr media were removed and cells were treated with various treatments. After 2 to 20 hours conditioned media and/or cell lysates were collected for the analyses of secreted cytokines, protein or mRNA expression. 10 μg/ml of purified human CRP (Calbiochem, San Diego, Calif.) was used in most of the treatments. In some experiments fetal calf serum (FCS from ATCC) was added to a final concentration of 10% together with CRP. In the examples provided herein, including those assessing the effects of p38 antagonism, cells were pre-treated with SD, a p38 small molecule inhibitor (Compound 162 in Table A) for 1 hour prior to CRP treatment as described above. In a parallel series of experiments, the effect of vehicle (DMSO) was tested. For TaqMan analyses of various gene expression cells were lysed in ice-cold RLT lysis buffer (Qiagen, Valencia, Calif.) and the lysates were kept in −80° C. until the analyses. For Western analyses cells were lysed in RIPA buffer (50 mM Tris-HCl, pH 7.5, 150 mM NaCl, 1 mM EDTA, 1% NP-40) containing phosphatase inhibitor cocktails and protease inhibitor cocktail (Promega, Madison, Wis.).
Conditioned media from the treated cells were collected (6 to 20 hrs), and the level of secreted interleukin 6 (IL-6), interleukin 1 beta (IL-1 β), tumor necrosis factor alpha (TNFα), and interleukin 8 (IL-8) was determined by ELISA according to the manufacturer's instruction (Biosource International, Camarillo, Calif.). All determinations were performed in duplicates.
As part of the studies described herein, an investigation was done as to whether the CRP invoked IL-6 secretion from HPBMCs is dependent on p38 MAP kinase signaling. […] The effect of addition of 10% fetal calf serum (FCS) during the CRP treatment on IL-6 secretion was also assessed. […]

[2] = system: TF protein in HPBMCs; experiment: Tissue Factor protein expression in HPBMCs, Western; format: cell-based, human; settings: 1 μM SD, 16 hours
Method: The figures illustrate the effects of CRP on TF protein and mRNA expression in HPBMCs and their modulation by p38 inhibitor. 1.5×10^6 HPBMCs were plated in 48-well. After 1 hour medium was removed and cells were incubated with or without 10 μg/ml of purified human CRP in serum-free RPMI 1640. In parallel experiments, cells were treated with 10% FCS together with the CRP treatment. For the p38 antagonism, p38 inhibitor was added to a final concentration of 1 μM in the parallel treatment. After 16 hours cells were lysed and TF protein level was determined by Western blot. TF signal was normalized by GAPDH signal. As shown in FIG. 7(c), after 6 hours TF mRNA level were determined by real-time PCR as described in the Experimental section.
as §1, with “For TaqMan analyses of various gene expression cells were lysed in ice-cold RLT lysis buffer (Qiagen, Valencia, Calif.) and the lysates were kept in −80° C. until the analyses. For Western analyses cells were lysed in RIPA buffer (50 mM Tris-HCl, pH 7.5, 150 mM NaCl, 1 mM EDTA, 1% NP-40) containing phosphatase inhibitor cocktails and protease inhibitor cocktail (Promega, Madison, Wis.).” left out
HPBMCs were treated as described above (p38 MAP kinase activation). […] 10 μg total proteins were resolved on LDS-PAGE (In Vitrogen, Carlsbad, Calif.), and tissue factor protein expression was determined by Western using antibody against human tissue factor (American Diagnostica, Stamford, Conn.). […]

IC50 ([1]; Homo sapiens, CRP 10 μg/ml in the presence of 10% FCS, 4 hours, read-out: concentration effective to inhibit 50% of IL-6 secretion): < 50 nM
Compound: C[C@@H]1CN(Cc2ccc(F)cc2)[C@@H](C)CN1C(=O)c1cc2c(C(=O)C(=O)N(C)C)c[nH]c2cc1Cl [Compound 162]
inhibition of CRP-induced IL-6 secretion ([1]; 1 μM SD, 10 μg/ml CRP, no FCS, 6 hours): almost completely attenuated
inhibition of IL-6 secretion induced by CRP plus 10% FCS ([1]; 1 μM SD, 6 hours): dramatically inhibited
inhibition of basal IL-6 secretion ([1]; 1 μM SD, HPBMCs, 6 hours): almost completely attenuated
inhibition of IL-6 secretion invoked by CRP in the presence of FCS ([1]; 3 μM SD, 4 hours): almost completely inhibited
reduction of TF protein expression invoked by CRP plus FCS [2]: to control level
reduction of TF protein expression invoked by FCS [2]: to control level
reduction of TF protein expression invoked by CRP ([2]; listed as SD): to control level; also recorded: blocked
